Where “and” joins values, the source holds several entries; their conditions need not be identical. Identical values can stand only once. Inconclusive results and toxic doses are left out.
Test system: L1210 leukemia ip in BDF1 mice, survival T/C
Assay: NCI In Vivo Anticancer Drug Screen. Data for tumor model L1210 Leukemia (intraperitoneal) in B6D2F1 (BDF1) mice
Settings: endpoint: mean survival time, higher = longer survival
Procedure, shortened: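 Transplanted-tumor mice were given test agent; controls received vehicle only. Survival readings from the two groups were divided (treated over control).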

O=C(O)c1[nH]c(=O)[nH]c(=O)c1F
T/C (dose: 0.09 mg/kg/injection, schedule: Q01DX005 (oral), vehicle: saline): 112 % of control | T/C (dose: 0.18 mg/kg/injection, schedule: Q01DX005 (oral), vehicle: saline): 108 % of control | T/C (dose: 0.18 mg/kg/injection, schedule: Q01DX015 (ip), vehicle: saline): 115 % of control | T/C (dose: 0.37 mg/kg/injection, schedule: Q01DX005 (oral), vehicle: saline): 115 % of control | T/C (dose: 0.37 mg/kg/injection, schedule: Q01DX015 (ip), vehicle: saline): 157 % of control | T/C (dose: 0.63 mg/kg/injection, schedule: Q01DX015 (ip), vehicle: carboxymethylcellulose (CMC)): 105 % of control | T/C (dose: 0.75 mg/kg/injection, schedule: Q01DX005 (oral), vehicle: saline): 120 % of control | T/C (dose: 0.75 mg/kg/injection, schedule: Q01DX015 (ip), vehicle: saline): 188 % of control | T/C (dose: 0.75 mg/kg/injection, schedule: Q01DX015 (oral), vehicle: saline): 115 % of control | T/C (dose: 0.75 mg/kg/injection, schedule: Q## X003 (oral), vehicle: saline): 101 % of control | T/C (dose: 0.75 mg/kg/injection, schedule: Q## X024 (oral), vehicle: saline): 112 % of control | T/C (dose: 1.0 mg/kg/injection, schedule: Q01DX009 (ip), vehicle: saline with Tween-80): 114 % of control | T/C (dose: 1.0 mg/kg/injection, schedule: Q01DX009 (ip), vehicle: saline): 113 % of control | T/C (dose: 1.25 mg/kg/injection, schedule: Q01DX009 (ip), vehicle: saline): 97 % of control and 111 % of control | T/C (dose: 1.25 mg/kg/injection, schedule: Q01DX015 (ip), vehicle: carboxymethylcellulose (CMC)): 111 % of control | T/C (dose: 1.3 mg/kg/injection, schedule: Q## X008 (oral), vehicle: saline): 111 % of control | T/C (dose: 1.5 mg/kg/injection, schedule: Q01DX006 (iv), vehicle: saline): 112 % of control | T/C (dose: 1.5 mg/kg/injection, schedule: Q01DX009 (oral), vehicle: saline): 114 % of control | T/C (dose: 1.5 mg/kg/injection, schedule: Q01DX015 (im), vehicle: saline): 117 % of control | T/C (dose: 1.5 mg/kg/injection, schedule: Q01DX015 (sc), vehicle: saline): 120 % of control | T/C (dose: 1.5 mg/kg/injection, schedule: Q## X003 (oral), vehicle: saline): 104 % of control | T/C (dose: 1.5 mg/kg/injection, schedule: Q## X024 (oral), vehicle: saline): 113 % of control | T/C (dose: 2.5 mg/kg/injection, schedule: Q01DX009 (ip), vehicle: saline): 117 % of control | T/C (dose: 2.5 mg/kg/injection, schedule: Q01DX015 (ip), vehicle: carboxymethylcellulose (CMC)): 122 % of control | T/C (dose: 2.6 mg/kg/injection, schedule: Q## X008 (oral), vehicle: saline): 114 % of control | T/C (dose: 3.0 mg/kg/injection, schedule: Q01DX005 (oral), vehicle: saline): 157 % of control | T/C (dose: 3.0 mg/kg/injection, schedule: Q01DX006 (iv), vehicle: saline): 120 % of control | T/C (dose: 3.0 mg/kg/injection, schedule: Q01DX009 (ip), vehicle: saline): 165 % of control | T/C (dose: 3.0 mg/kg/injection, schedule: Q01DX015 (ip), vehicle: saline): 191 % of control | T/C (dose: 3.0 mg/kg/injection, schedule: Q01DX015 (oral), vehicle: saline): 157 % of control | T/C (dose: 3.0 mg/kg/injection, schedule: Q## X003 (oral), vehicle: saline): 103 % of control | T/C (dose: 4.0 mg/kg/injection, schedule: Q01DX009 (ip), vehicle: saline with Tween-80): 161 % of control | T/C (dose: 4.0 mg/kg/injection, schedule: Q01DX009 (ip), vehicle: saline): 165 % of control | T/C (dose: 5.0 mg/kg/injection, schedule: Q01DX009 (ip), vehicle: saline): 155 % of control | T/C (dose: 5.0 mg/kg/injection, schedule: Q01DX015 (ip), vehicle: carboxymethylcellulose (CMC)): 155 % of control | T/C (dose: 5.0 mg/kg/injection, schedule: Q01DX Z (ip), vehicle: methylcellulose (MC)): 119 % of control | T/C (dose: 5.2 mg/kg/injection, schedule: Q## X008 (oral), vehicle: saline): 119 % of control | T/C (dose: 6.0 mg/kg/injection, schedule: Q01DX005 (oral), vehicle: saline): 174 % of control | T/C (dose: 6.0 mg/kg/injection, schedule: Q01DX006 (iv), vehicle: saline): 121 % of control | T/C (dose: 6.0 mg/kg/injection, schedule: Q01DX009 (ip), vehicle: saline): 211 % of control | T/C (dose: 6.0 mg/kg/injection, schedule: Q01DX015 (im), vehicle: saline): 179 % of control | T/C (dose: 6.0 mg/kg/injection, schedule: Q01DX015 (ip), vehicle: saline): 164 % of control | T/C (dose: 6.0 mg/kg/injection, schedule: Q01DX015 (oral), vehicle: saline): 191 % of control | T/C (dose: 6.0 mg/kg/injection, schedule: Q01DX015 (sc), vehicle: saline): 182 % of control | T/C (dose: 6.0 mg/kg/injection, schedule: Q## X003 (oral), vehicle: saline): 113 % of control | T/C (dose: 6.0 mg/kg/injection, schedule: Q## X024 (oral), vehicle: saline): 157 % of control | T/C (dose: 7.0 mg/kg/injection, schedule: Q01DX015 (ip), vehicle: carboxymethylcellulose (CMC)): 189 % of control | T/C (dose: 8.0 mg/kg/injection, schedule: Q01DX009 (ip), vehicle: saline): 188 % of control | T/C (dose: 10.0 mg/kg/injection, schedule: Q01DX009 (ip), vehicle: saline): 188 % of control and 206 % of control | T/C (dose: 10.5 mg/kg/injection, schedule: Q01DX001 (oral), vehicle: saline): 111 % of control | T/C (dose: 11.0 mg/kg/injection, schedule: Q01DX015 (ip), vehicle: carboxymethylcellulose (CMC)): 214 % of control | T/C (dose: 11.0 mg/kg/injection, schedule: Q01DX Z (ip), vehicle: methylcellulose (MC)): 109 % of control | T/C (dose: 12.0 mg/kg/injection, schedule: Q01DX006 (iv), vehicle: saline): 153 % of control | T/C (dose: 12.0 mg/kg/injection, schedule: Q01DX009 (ip), vehicle: saline): 100 % of control and 101 % of control | T/C (dose: 12.0 mg/kg/injection, schedule: Q01DX015 (im), vehicle: saline): 162 % of control | T/C (dose: 12.0 mg/kg/injection, schedule: Q01DX015 (ip), vehicle: saline): 155 % of control | T/C (dose: 12.0 mg/kg/injection, schedule: Q01DX015 (sc), vehicle: saline): 171 % of control | T/C (dose: 12.0 mg/kg/injection, schedule: Q## X024 (oral), vehicle: saline): 154 % of control | T/C (dose: 12.0 mg/kg/injection, schedule: Q## X040 (oral), vehicle: saline): 87 % of control | T/C (dose: 16.0 mg/kg/injection, schedule: Q01DX009 (ip), vehicle: saline): 107 % of control | T/C (dose: 16.0 mg/kg/injection, schedule: Q01DX015 (ip), vehicle: carboxymethylcellulose (CMC)): 183 % of control | T/C (dose: 21.0 mg/kg/injection, schedule: Q01DX001 (oral), vehicle: saline): 106 % of control | T/C (dose: 24.0 mg/kg/injection, schedule: Q01DX009 (ip), vehicle: saline): 110 % of control | T/C (dose: 24.0 mg/kg/injection, schedule: Q01DX009 (oral), vehicle: saline): 112 % of control | T/C (dose: 24.0 mg/kg/injection, schedule: Q01DX015 (im), vehicle: saline): 120 % of control | T/C (dose: 24.0 mg/kg/injection, schedule: Q01DX015 (ip), vehicle: saline): 114 % of control | T/C (dose: 24.0 mg/kg/injection, schedule: Q01DX015 (oral), vehicle: saline): 104 % of control | T/C (dose: 24.0 mg/kg/injection, schedule: Q## X024 (oral), vehicle: saline): 156 % of control | T/C (dose: 32.0 mg/kg/injection, schedule: Q04DX003 (ip), vehicle: saline): 178 % of control | T/C (dose: 48.0 mg/kg/injection, schedule: Q01DX006 (iv), vehicle: saline): 183 % of control | T/C (dose: 48.0 mg/kg/injection, schedule: Q01DX009 (ip), vehicle: saline): 88 % of control | T/C (dose: 48.0 mg/kg/injection, schedule: Q01DX009 (oral), vehicle: saline): 101 % of control | T/C (dose: 48.0 mg/kg/injection, schedule: Q01DX015 (im), vehicle: saline): 95 % of control and 112 % of control | T/C (dose: 48.0 mg/kg/injection, schedule: Q01DX015 (ip), vehicle: carboxymethylcellulose (CMC)): 120 % of control | T/C (dose: 48.0 mg/kg/injection, schedule: Q01DX015 (ip), vehicle: saline): 101 % of control and 114 % of control | T/C (dose: 48.0 mg/kg/injection, schedule: Q01DX015 (oral), vehicle: saline): 97 % of control | T/C (dose: 48.0 mg/kg/injection, schedule: Q01DX015 (sc), vehicle: saline): 106 % of control and 108 % of control | T/C (dose: 48.0 mg/kg/injection, schedule: Q## X003 (oral), vehicle: saline): 158 % of control | T/C (dose: 48.0 mg/kg/injection, schedule: Q## X024 (oral), vehicle: saline): 109 % of control | T/C (dose: 64.0 mg/kg/injection, schedule: Q04DX003 (ip), vehicle: saline): 193 % of control | T/C (dose: 84.0 mg/kg/injection, schedule: Q01DX001 (oral), vehicle: saline): 121 % of control | T/C (dose: 96.0 mg/kg/injection, schedule: Q01DX006 (iv), vehicle: saline): 106 % of control | T/C (dose: 96.0 mg/kg/injection, schedule: Q01DX015 (im), vehicle: saline): 86 % of control | T/C (dose: 96.0 mg/kg/injection, schedule: Q01DX015 (oral), vehicle: saline): 87 % of control | T/C (dose: 96.0 mg/kg/injection, schedule: Q## X024 (oral), vehicle: saline): 98 % of control | T/C (dose: 192.0 mg/kg/injection, schedule: Q01DX006 (iv), vehicle: saline): 104 % of control | T/C (dose: 192.0 mg/kg/injection, schedule: Q01DX015 (oral), vehicle: saline): 87 % of control | T/C (dose: 356.0 mg/kg/injection, schedule: Q## X008 (oral), vehicle: saline): 111 % of control | T/C (dose: 384.0 mg/kg/injection, schedule: Q01DX006 (iv), vehicle: saline): 86 % of control | T/C (dose: 384.0 mg/kg/injection, schedule: Q## X003 (oral), vehicle: saline): 122 % of control | T/C (dose: 712.0 mg/kg/injection, schedule: Q01DX001 (oral), vehicle: saline): 150 % of control | T/C (dose: 768.0 mg/kg/injection, schedule: Q## X003 (oral), vehicle: saline): 108 % of control | T/C (dose: 1000.0 mg/kg/injection, schedule: Q01DX001 (oral), vehicle: saline): 160 % of control | T/C (dose: 1000.0 mg/kg/injection, schedule: Q## X003 (oral), vehicle: saline): 103 % of control

— PubChem BioAssay AID248 (DTP/NCI, 2004)
